Measurements published in PMC7822874, “Chemoprotective antimalarials identified through quantitative high-throughput screening of Plasmodium blood and liver stage parasites” (Scientific Reports, 2021).

Tested on: Plasmodium falciparum Dd2 asexual blood stage parasites
Test: microbe, parasite or virus in culture
Set-up: species or system Plasmodium falciparum Dd2 in human erythrocytes; single determination (one 11-point concentration-response curve)
Conditions: Plasmodium falciparum, DD2, Erythrocyte, 72 h; read-out: AC50

Point of comparison: `Cc1cnc(C2CCC2)n1C1CCCN(C(=O)CCCc2ccccc2)C1` (centres unmarked) [NCGC00464236-01], AC50 15 µM. Against it:
- COCC1CN(Cc2cc(F)cc(Br)c2)CC12CCNCC2 (centres unmarked) [NCGC00461842-01] — 1.6-fold lower, 9.44 µM
- COCC1CN(Cc2cccc(OC(F)(F)F)c2)CC12CCNCC2 (centres unmarked) [NCGC00461844-01] — the same, 15 µM
- COCC1CN(C)CC12CCN([S+](=O)([O-])c1ccc(F)c(Cl)c1)CC2 (centres unmarked) [NCGC00461939-01] — within 1.5-fold, 13.3 µM
- CN(C)C[C@@H]1CN(C)C[C@H]1N[S+](=O)([O-])c1ccc(Br)cc1 [NCGC00462726-01] — within 1.5-fold, 13.3 µM
- Cc1ccc([S+](=O)([O-])N[C@@H]2CN(C)C[C@H]2CN(C)C)cc1F [NCGC00462728-01] — the same, 15 µM
- COC1C(=O)N(c2cccc(F)c2)C12CCNCC2 (centres unmarked) [NCGC00463379-01] — within 1.5-fold, 10.6 µM
- Fc1cccc(CN2CCC(N3CC(OCC4CC4)C34CCCCC4)CC2)c1 (centres unmarked) [NCGC00463410-01] — 3.6-fold lower, 4.22 µM
- Cn1cccc1CN1CCC(N2CC(OCC3CC3)C23CCCCC3)CC1 (centres unmarked) [NCGC00463411-01] — 2-fold lower, 7.5 µM
- COc1cccc(CN2CCC(N3CC(OCC4CC4)C34CCCCC4)CC2)n1 (centres unmarked) [NCGC00463412-01] — 3.6-fold lower, 4.22 µM
- CCn1cc(CN2CCC(N3CC(OCC4CC4)C34CCCCC4)CC2)cn1 (centres unmarked) [NCGC00463414-01] — 1.8-fold lower, 8.41 µM
- CC(C)[S+](=O)([O-])N1CCC(N2CC(OCC3CC3)C23CCCCC3)CC1 (centres unmarked) [NCGC00463417-01] — the same, 15 µM
- CCCn1c(C)cnc1CC1CCN([S+](=O)([O-])c2ccc3c(c2)CCC3)C1 (centres unmarked) [NCGC00464176-01] — 1.6-fold lower, 9.44 µM
- O=C(NCCc1c[nH]c2ccccc12)[C@@H]1C[C@H]2C(=O)NCCCCCCN(C(=O)c3ccco3)[C@H]2C1 [NCGC00465014-01] — within 1.5-fold, 10.6 µM
- COc1ccc2c(c1)c(CN1CCCCCCN(C)C(=O)[C@@H]3CCC[C@@H]31)cn2C [NCGC00465190-01] — the same, 15 µM
- COc1ccc(CN2CCCCCNC(=O)CC2c2ccccc2)cc1Cn1ccnc1 (centres unmarked) [NCGC00465444-01] — 1.6-fold lower, 9.44 µM
- O=C1CC(c2ccccc2)N(C(=O)CNC(=O)c2ccc3[nH]ccc3c2)CCCCCN1 (centres unmarked) [NCGC00465493-01] — the same, 15 µM
- COC1CN(c2ccc(C)cc2)C12CCN(C(=O)CCc1nc3ccccc3s1)CC2 (centres unmarked) [NCGC00465628-01] — within 1.5-fold, 10.6 µM
- N#Cc1cccc(C(=O)N2CCCN(Cc3ccncc3)C(c3ccccc3)CC(=O)NCC2)c1 (centres unmarked) [NCGC00467150-01] — 2-fold lower, 7.5 µM
- Cc1ccc(CN2CCCN(Cc3ccncc3)C(c3ccccc3)CC(=O)NCC2)o1 (centres unmarked) [NCGC00467180-01] — 2-fold lower, 7.5 µM
- Cc1ccc(CN2CCCN(Cc3ccncc3)C(c3ccccc3)CC(=O)NCC2)s1 (centres unmarked) [NCGC00467183-01] — 5.6-fold lower, 2.66 µM
- Cc1cccc(CN2CCCN(Cc3ccncc3)C(c3ccccc3)CC(=O)NCC2)c1 (centres unmarked) [NCGC00467184-01] — 3.6-fold lower, 4.22 µM
- COc1cccc(CN2CCCN(Cc3ccncc3)C(c3ccccc3)CC(=O)NCC2)c1 (centres unmarked) [NCGC00467185-01] — 2-fold lower, 7.5 µM
- Cc1ncsc1CN1CCCN(Cc2ccncc2)C(c2ccccc2)CC(=O)NCC1 (centres unmarked) [NCGC00467186-01] — 1.8-fold lower, 8.41 µM
- O=C1CC(c2ccccc2)N(Cc2ccncc2)CCCN(C(=O)Nc2ccccc2F)CCN1 (centres unmarked) [NCGC00467191-01] — 8.9-fold lower, 1.68 µM
- O=C1CC(c2ccccc2)N(Cc2ccncc2)CCCN([S+](=O)([O-])c2cccs2)CCN1 (centres unmarked) [NCGC00467201-01] — 2.2-fold lower, 6.68 µM
- O=C1CC(c2ccccc2)N(Cc2ccncc2)CCCN([S+](=O)([O-])c2cccc(F)c2)CCN1 (centres unmarked) [NCGC00467202-01] — 3.2-fold lower, 4.73 µM
- Cc1noc(C)c1[S+](=O)([O-])N1CCCN(Cc2ccncc2)C(c2ccccc2)CC(=O)NCC1 (centres unmarked) [NCGC00467205-01] — 2-fold lower, 7.5 µM
- Cc1ccc(CN2CC[C@@H]3C(=O)NCCCCCCN(Cc4ccncc4)[C@@H]3C2)o1 [NCGC00467213-01] — 7.1-fold lower, 2.11 µM
- N#Cc1ccc(CN2CC[C@@H]3C(=O)NCCCCCCN(Cc4ccncc4)[C@@H]3C2)cc1 [NCGC00467216-01] — within 1.5-fold, 10.6 µM
- O=C1CC(c2ccccc2)N(C(=O)CNC(=O)c2n[nH]c3c2CCc2ccccc2-3)CCCCCCN1 (centres unmarked) [NCGC00467449-01] — 5-fold lower, 2.99 µM
- Cn1cccc1CN1C[C@@H](COc2ccncc2)[C@H](c2ccccn2)C1 [NCGC00468708-01] — within 1.5-fold, 13.3 µM
